Patent US20090130121A1, “Synthetic Peptide Copolymers for Treatment and Prevention of Cardiovascular Disorders” (Yeda Research and Development Co., Ltd., priority 2005, published 2009)

Legend:
[1] = tested on: apolipoprotein E-deficient mice; conditions: 12 week treatment; cited from earlier work
[2] = Body weight gain and plasma lipids in apoE-/- mice; format: in vivo; conditions: high and low doses, subcutaneously or orally, daily 8 weeks
Method: (§1) apoE-/- (backcrossed 10 times to C57BL/6J) mice were obtained from the Jackson Laboratory and were maintained under specific pathogen-free conditions and fed a normal chow diet. All experimental procedures were performed with approval from the Animal Care Committee of the Weizmann Institute of Science.
(§2) Eight-month-old apoE-/- mice (101 mice) were divided into 7 groups, […] (except day 0 group; n=11). Control group-time 0 (group 1) was sacrificed before treatment in order to measure the atherosclerotic lesion area prior to the treatments. Treatments were performed daily for a period of 8 weeks. Control group (group II) was orally administrated with PBS (0.2 ml). Control group III was injected subcutaneously (SC) with PBS (0.2 ml). Group IV was orally treated with GA in PBS (5.0 μg/0.2 ml); Groups V was orally treated with GA in PBS (250 μg/0.2 ml). Group VI was injected subcutaneously (SC) with GA in PBS (0.5 mg/0.2 ml). Group VII was injected subcutaneously (SC) with GA in PBS (2.0 mg/0.2 ml).
The whole blood samples were centrifuged for plasma separation and the plasma samples of each group were pooled. Total Plasma cholesterol as well as low and high density lipoprotein cholesterol (LDL and HDL, respectively) concentrations were measured in each group using Konelab 30i autoanalyser (Kone Instruments, Espoo, Finland).

apoE-/- mice [3] = test: Aortic atherosclerotic lesion area in apoE-/- mice; format: in vivo
Method: as §1, §2
Aortic atherosclerotic areas were measured in control and treated mice of the following groups: I (time 0); III (S.C. PBS); V (Oral GA, 250 μg); and VII (S.C. GA, 2.0 mg).

apoE-/- mice [4] = test: Atherosclerotic lesion progression in the aortic sinus of apoE-/- mice; format: in vivo; conditions: daily 8 weeks
Method: as §1
as §2, with “Group IV was orally treated with GA in PBS (5.0 μg/0.2 ml); Groups V was orally treated with GA in PBS (250 μg/0.2 ml).” left out
Histological evaluations of aortic fatty streak formation were performed according to the method of Paigen et al. with some modifications (Paigen et al., 1987. Atherosclerosis. 68:231-240). Briefly, the apical two thirds of the myocardium were removed and the basal part was snap-frozen in OCT (Sakura Tissue-Tek) using Isopentan cooled in liquid nitrogen. The frozen tissue blocks were placed on a cryostat, and 10-μm serial slices of the ascending aorta were collected on charge-coated Superfrost glass slides until it became possible to locate the most cranial portion of the aortic sinus by examining unstained slices. Once this slice was identified, 40 slices covering 400 μm of the ascending aorta were collected. Every second slice of the 40 collected was stained with oil red O (Riedel de Haen), counterstained with hematoxylin (Merck) stains and used for further evaluation. The fatty streak area stained with oil red O was objectively determined using a computer microscopy planimetry system (Nikon Micro & Macro system eclipse E800; Nikon digital camera DXM 1200 CCD; Nikon ×20/0.75 lens magnification) and Image-Pro Plus image analyses software for Windows XP. The total stained area (calculated for all 20 slices of each animal) was averaged per section for each animal. Thereafter, the area per slice was averaged for each group of animals and presented in μm^2.
Student's t-test was used for the comparison of the lesion progression in the aortic sinus of the treated and control groups of the apoE-/- mice.

[5] = Survival and body weight of C57BL/J6 mice on atherogenic diet, daily SC treatment; format: in vivo; conditions: Group B, GA 0.5 mg/0.2 ml SC daily
Source text: (§3) Fourteen-month-old male C57BL/J6 mice (Harlan) with an average body weight of 19 g were randomly divided into three groups (five animals in each group). The groups entered a two-week acclimatization period. Groups A, which served as positive control and B, which served as the treated group, received a high fat atherogenic diet containing 1.25 % cholesterol, 0.5% sodium cholate and 15% fat (Harlan Laboratories, Teklad Premier Laboratory Diets, Madison, Wis., USA TD 88051). Group C served as negative control and was maintained on a normal mouse chow (Altromin, Standard Diet). The chow was supplied considering that the average intake of food for each animal is about 5 g/day (Walker et al., 1999, Arterioscler Thromb Vasc Biol. 19, 2673-2679). Replenishment of food and autoclaved water was performed every other day. All the animals were weighed weekly during the study. The mice were maintained on a 12-hour light/dark cycle in ventilated cages and temperature-controlled environment, in accordance with the standard animal care requirements of the Weizmann Institute of Science.
Following acclimatization, the animals in groups A (positive control) and C (negative control) received 0.2 ml of PBS injected daily subcutaneously (SC). The animals in group B (treated) received SC daily injections of glatiramer acetate (GA) (COPAXONE®, Teva Pharmaceutical Industries Ltd) in PBS (0.5 mg/0.2 ml). After 8 weeks all the mice were bled retro-orbitally and humanely sacrificed by cervical dislocation. The hearts and ascending aorta were removed from the animals, rinsed with Dulbecco's PBS (Life Technologies) and used for the evaluation of fatty streak formation.
(§4) ANOVA single factor test was used for the comparison of the body weights of the C57BL/J6 mice. Since no fatty streaks were detected in the negative control group of the C57BL/J6 mice (Group C), only two groups (A and B) participated in the statistical analysis of the results obtained in the quantization of aortic fatty streak area. The C57BL/J6 data were analyzed using Student's t-test: two samples assuming unequal variance. […]

[6] = tested on: C57BL/J6 mice maintained on an atherogenic diet; test: Atherosclerotic fatty streak area (oil red O) in aorta of C57BL/J6 mice on atherogenic diet; format: in vivo
Source text: as §3, with “Science. […]” for “Science.”
Histological evaluations of aortic fatty streak formation were performed according to the method of Paigen et al. with some modifications (Paigen et al., 1987. Atherosclerosis. 68:231-240). […] The fatty streak area stained with oil red O was objectively determined using a computer microscopy planimetry system (Nikon Micro & Macro system eclipse E800; Nikon digital camera DXM 1200 CCD; Nikon ×20/0.75 lens magnification) and Image-Pro Plus image analyses software for Windows XP. The total stained area (calculated for all 20 slices of each animal) was averaged per section for each animal. […]
as §4

[7] = several clinical trials; mostly mild reactions at the injection site; cited from earlier work

Row | Molecule | decrease in the size of atherosclerotic lesions [1] [%] | effect on body weight gain [2] | change in aortic lesion area compared to time 0 (apoE-/- mice [3]; Oral GA 250 μg, group V, P<0.05) | inhibition of aortic lesion area progression compared to control group III (apoE-/- mice [3]; high dose 2.0 mg S.C., group VII, t-test P=0.009) [%] | inhibition of the progression of lesion area in the aortic sinus with respect to control (apoE-/- mice [4]; high dose S.C. (2.0 mg)) [%] | inhibition of the progression of lesion area in the aortic sinus with respect to control (apoE-/- mice [4]; high dose orally (250 μg)) [%] | effect on lesion progression in the aortic sinus (apoE-/- mice [4]; low dose S.C. (500 μg)) | effect on lesion progression in the aortic sinus (apoE-/- mice [4]; low dose orally (50 μg)) | average body weight ten weeks following the initiation of the study ([5]; atherogenic diet) [g] | weight gained during the 10 weeks of the study ([5]; atherogenic diet) [g] | animals that reached the end of the study ([5]; one animal found dead five weeks into the study) | animals with no fatty streaks in the analysed aortic section (20 slices) ([6]; Group B, GA 0.5 mg SC daily 8 weeks, animals that reached the end of the study) | reduction in the fatty streak area compared to the untreated mice ([6]; calculated for all four mice in Group B) [fold] | average area stained with oil red O relative to positive control Group A ([6]; the two GA-treated mice that had fatty streaks, p=0.014) [%] | tolerability in clinical trials [7]
1 | CC(=O)CCCCn1c(=O)c2c(ncn2C)n(C)c1=O [PTX, pentoxifylline] | 60 | – | – | – | – | – | – | – | – | – | – | – | – | – | –
2 | glatiramer acetate [GA] | – | did not affect | significance increase | 52 | 44.4 | 37.7 | did not effect | did not effect | 24.20 ± 0.94 | 5.24 ± 1.40 | Four out of five | two out of four | 4 | 40 | well tolerated with only minor side reactions
